MIC data for 6 molecules are collected here from ChEMBL document CHEMBL3596195, “Novel cajaninstilbene acid derivatives as antibacterial agents” (Eur J Med Chem, 2015).

Holding throughout (format): functional
In test [1] the test system is Staphylococcus aureus. As to the kind of experiment: Antibacterial activity against Staphylococcus aureus ATCC25923 assessed as bacterial growth inhibition after 24 hrs by broth dilution method. The following applies: ATCC25923, 24 h. Background: In broth dilution the organism is exposed to a series of concentrations in liquid medium.
In test [2] the test system is Staphylococcus epidermidis. As to the kind of experiment: Antibacterial activity against Staphylococcus epidermidis ATCC12228 assessed as bacterial growth inhibition after 24 hrs by broth dilution method. Conditions: ATCC12228, 24 h.
The test system of the next test is Bacillus subtilis. As to the kind of experiment: Antibacterial activity against Bacillus subtilis ATCC6633 assessed as bacterial growth inhibition after 24 hrs by broth dilution method. The following applies: ATCC6633, 24 h.
For the next test, the system named is Escherichia coli. As to the kind of experiment: Antibacterial activity against Escherichia coli ATCC25922 assessed as bacterial growth inhibition after 24 hrs by broth dilution method. Conditions: ATCC25922, 24 h.
A further test concerns Proteus vulgaris. As to the kind of experiment: Antibacterial activity against Proteus vulgaris ATCC49101 assessed as bacterial growth inhibition after 24 hrs by broth dilution method. The following applies: ATCC49101, 24 h.
The next test deals with Pseudomonas aeruginosa. In words: Antibacterial activity against Pseudomonas aeruginosa ATCC2785 assessed as bacterial growth inhibition after 24 hrs by broth dilution method. Conditions: ATCC2785, 24 h.
In test [3] the test system is Staphylococcus aureus. In words: Antibacterial activity against methicillin-resistant Staphylococcus aureus ATCC43300 assessed as bacterial growth inhibition after 24 hrs by broth dilution method. The following applies: ATCC43300, 24 h.
Test [4] has as its system Staphylococcus aureus. As to the kind of experiment: Antibacterial activity against methicillin-resistant Staphylococcus aureus ATCC523512 assessed as bacterial growth inhibition after 24 hrs by broth dilution method. Conditions: ATCC523512, 24 h.
For test [5], the system named is Staphylococcus aureus. In words: Antibacterial activity against methicillin-resistant Staphylococcus aureus ATCC425055 assessed as bacterial growth inhibition after 24 hrs by broth dilution method. The following applies: ATCC425055, 24 h.
The test system of test [6] is Staphylococcus aureus. In words: Antibacterial activity against methicillin-resistant Staphylococcus aureus ATCC513045 assessed as bacterial growth inhibition after 24 hrs by broth dilution method. The following applies: ATCC513045, 24 h.
Test [7] has as its system Staphylococcus aureus. As to the kind of experiment: Antibacterial activity against methicillin-resistant Staphylococcus aureus ATCC62202 assessed as bacterial growth inhibition after 24 hrs by broth dilution method. The following applies: ATCC62202, 24 h.
Test [8] concerns Staphylococcus aureus. In words: Antibacterial activity against methicillin-resistant Staphylococcus aureus ATCC51033 assessed as bacterial growth inhibition after 24 hrs by broth dilution method. The following applies: ATCC51033, 24 h.
Test [9] has as its system Staphylococcus aureus. As to the kind of experiment: Antibacterial activity against methicillin-resistant Staphylococcus aureus ATCC52056 assessed as bacterial growth inhibition after 24 hrs by broth dilution method. The following applies: ATCC52056, 24 h.
For test [10], the system named is Staphylococcus aureus. In words: Antibacterial activity against methicillin-resistant Staphylococcus aureus ATCC515992 assessed as bacterial growth inhibition after 24 hrs by broth dilution method. Conditions: ATCC515992, 24 h.
Test [11] relates to Staphylococcus aureus. As to the kind of experiment: Antibacterial activity against methicillin-resistant Staphylococcus aureus ATCC510019 assessed as bacterial growth inhibition after 24 hrs by broth dilution method. Conditions: ATCC510019, 24 h.

In brackets after ≈: the same amount, converted by molar mass. Some results are limits rather than exact numbers.

`COC(=O)c1c(/C=C/c2ccc(Cl)cc2)cc(OC)c(CC=C(C)C)c1O`: the MIC in the test on Staphylococcus aureus [1] is more than 128 µg/mL; in test [2], 128 µg/mL (≈ 331 µM); in the test on Bacillus subtilis, more than 128 µg/mL; in the test on Escherichia coli it was more than 128 µg/mL; in the test with Proteus vulgaris, more than 128 µg/mL; in the test on Pseudomonas aeruginosa, more than 128 µg/mL. The MIC was more than 128 µg/mL in the test with Staphylococcus aureus [3]; more than 128 µg/mL in the test on Staphylococcus aureus [4]; more than 128 µg/mL with Staphylococcus aureus [5]; more than 128 µg/mL in the test on Staphylococcus aureus [6]; 128 µg/mL (≈ 331 µM) with Staphylococcus aureus [7]; more than 128 µg/mL with Staphylococcus aureus [8]. Also, the MIC in the test on Staphylococcus aureus [9], in the test with Staphylococcus aureus [10] and in the test on Staphylococcus aureus [11] was more than 128 µg/mL each time.
For `COC(=O)c1c(/C=C/c2ccc(OC)cc2)cc(OC)c(CC=C(C)C)c1O`, the MIC in the test with Staphylococcus aureus [1] is 128 µg/mL (≈ 335 µM); in [2], more than 128 µg/mL; in the test on Bacillus subtilis, more than 128 µg/mL; in the test on Escherichia coli it was more than 128 µg/mL; with Proteus vulgaris it was more than 128 µg/mL; in the test on Pseudomonas aeruginosa, more than 128 µg/mL. The MIC in the test with Staphylococcus aureus [3] was 128 µg/mL (≈ 335 µM); with Staphylococcus aureus [4], 128 µg/mL (≈ 335 µM); in the test with Staphylococcus aureus [5] it was 128 µg/mL (≈ 335 µM); in the test with Staphylococcus aureus [6] it was 128 µg/mL (≈ 335 µM); with Staphylococcus aureus [7] it was more than 128 µg/mL; with Staphylococcus aureus [8], more than 128 µg/mL. The values for the MIC with Staphylococcus aureus [9], with Staphylococcus aureus [10] and with Staphylococcus aureus [11] were 128 µg/mL (≈ 335 µM), more than 128 µg/mL and 128 µg/mL (≈ 335 µM), respectively.
Take `COC(=O)c1c(/C=C/c2cc(OC)c(OC)c(OC)c2)cc(OC)c(CC=C(C)C)c1O`: the MIC with Staphylococcus aureus [1] was more than 128 µg/mL; in test [2] it was 64 µg/mL (≈ 145 µM); in the test on Bacillus subtilis, more than 128 µg/mL; in the test with Escherichia coli, more than 128 µg/mL; with Proteus vulgaris it was more than 128 µg/mL; in the test with Pseudomonas aeruginosa, more than 128 µg/mL. Besides, the MIC in the test with Staphylococcus aureus [3] was more than 128 µg/mL; in the test with Staphylococcus aureus [4], more than 128 µg/mL; with Staphylococcus aureus [5] it was more than 128 µg/mL; with Staphylococcus aureus [6] it was more than 128 µg/mL; in the test with Staphylococcus aureus [7] it was more than 128 µg/mL; in the test with Staphylococcus aureus [8], 128 µg/mL (≈ 289 µM). In addition, the MIC in the test on Staphylococcus aureus [9] is more than 128 µg/mL; with Staphylococcus aureus [10], 64 µg/mL (≈ 145 µM); in the test with Staphylococcus aureus [11], more than 128 µg/mL.
Turning to `COC(=O)c1c(/C=C/c2cccc(C#N)c2)cc(OC)c(CC=C(C)C)c1O`, the MIC is more than 128 µg/mL with Staphylococcus aureus [1]; 128 µg/mL (≈ 339 µM) in test [2]; more than 128 µg/mL in the test on Bacillus subtilis; more than 128 µg/mL in the test on Escherichia coli; more than 128 µg/mL in the test with Proteus vulgaris; more than 128 µg/mL in the test with Pseudomonas aeruginosa. The MIC was more than 128 µg/mL in the test on Staphylococcus aureus [3]; more than 128 µg/mL with Staphylococcus aureus [4]; more than 128 µg/mL in the test with Staphylococcus aureus [5]; more than 128 µg/mL with Staphylococcus aureus [6]; 128 µg/mL (≈ 339 µM) in the test with Staphylococcus aureus [7]; more than 128 µg/mL in the test with Staphylococcus aureus [8]. For the same molecule, the MIC with Staphylococcus aureus [9], in the test with Staphylococcus aureus [10] and in the test with Staphylococcus aureus [11] was more than 128 µg/mL in each case.
As to `COC(=O)c1c(/C=C/c2ccc(C(F)(F)F)cc2)cc(OC)c(CC=C(C)C)c1O`, the MIC is 64 µg/mL (≈ 152 µM) in the test on Staphylococcus aureus [1]; 64 µg/mL (≈ 152 µM) in [2]; 128 µg/mL (≈ 304 µM) in the test with Bacillus subtilis; more than 128 µg/mL in the test with Escherichia coli; more than 128 µg/mL in the test with Proteus vulgaris; more than 128 µg/mL in the test with Pseudomonas aeruginosa. Moreover, the minimum inhibitory concentration (MIC) was more than 128 µg/mL in the test on Staphylococcus aureus [3]; 64 µg/mL (≈ 152 µM) with Staphylococcus aureus [4]; 64 µg/mL (≈ 152 µM) with Staphylococcus aureus [5]; 128 µg/mL (≈ 304 µM) in the test on Staphylococcus aureus [6]; 128 µg/mL (≈ 304 µM) with Staphylococcus aureus [7]; more than 128 µg/mL in the test with Staphylococcus aureus [8]. The minimum inhibitory concentration (MIC) in the test on Staphylococcus aureus [9] was 128 µg/mL (≈ 304 µM); in the test with Staphylococcus aureus [10] it was more than 128 µg/mL; in the test with Staphylococcus aureus [11] it was more than 128 µg/mL.
With `COC(=O)c1c(/C=C/c2ccc(F)cc2F)cc(OC)c(CC=C(C)C)c1O`, the MIC was more than 128 µg/mL in the test with Staphylococcus aureus [1]; 64 µg/mL (≈ 165 µM) in test [2]; 128 µg/mL (≈ 330 µM) in the test with Bacillus subtilis; more than 128 µg/mL in the test on Escherichia coli; more than 128 µg/mL in the test on Proteus vulgaris; more than 128 µg/mL in the test with Pseudomonas aeruginosa. Further, the MIC in the test on Staphylococcus aureus [3] was more than 128 µg/mL; with Staphylococcus aureus [4], 64 µg/mL (≈ 165 µM); in the test with Staphylococcus aureus [5], 128 µg/mL (≈ 330 µM); with Staphylococcus aureus [6], more than 128 µg/mL; with Staphylococcus aureus [7], 64 µg/mL (≈ 165 µM); in the test with Staphylococcus aureus [8] it was 128 µg/mL (≈ 330 µM). For the same molecule, the MIC in the test on Staphylococcus aureus [9] is 128 µg/mL (≈ 330 µM); with Staphylococcus aureus [10], more than 128 µg/mL; in the test on Staphylococcus aureus [11], more than 128 µg/mL.

A word on the MIC: it is the least concentration at which growth counts as inhibited.
